structure (smiles),measurement,value
CON=C(C(C)=NN=Cc1ccccc1C(=NOC)C(=O)OC)c1ccc(Cl)cc1,melting point,118 to 119 °C
